From patent US10770169B2, “Method of providing a treatment to a subject based on a dynamic pathway map” (THE REGENTS OF THE UNIVERSITY OF CALIFORNIA, priority 2010, dated 2020)
Where two headings read alike, the source gives them in different places.

Tested on: panel of 55 breast cancer cell lines
Assay: Cell growth inhibition assay (Cell Titer Glo, 72 h, 9 doses; GI50, TGI, LC50)
Format: cell-based, human
Conditions: Homo sapiens, read-out: GI50 (converted)

Cn1c(=O)n(-c2ccc(C(C)(C)C#N)cc2)c2c3cc(-c4cnc5ccccc5c4)ccc3ncc21 [BEZ235]
GI50 (AU565, AU565 cell line, censored GI50 values): 257 nM
GI50 (AU565, cell line AU565): 257 nM
GI50 (BT-20, BT20 cell line, censored GI50 values): 3800 nM
GI50 (BT-20, cell line BT20): 3800 nM
GI50 (BT-474, BT474 cell line, censored GI50 values): 347 nM
GI50 (BT-474, cell line BT474): 347 nM
GI50 (BT-483, BT483 cell line, censored GI50 values): 11200 nM
GI50 (BT-483, cell line BT483): 11200 nM
GI50 (CAMA-1, CAMA1 cell line, censored GI50 values): 16600 nM
GI50 (CAMA-1, cell line CAMA1): 16600 nM
GI50 (HCC38, HCC38 cell line, censored GI50 values): 490 nM
GI50 (HCC38, cell line HCC38): 490 nM
GI50 (HCC70, HCC70 cell line, censored GI50 values): 158 nM
GI50 (HCC70, cell line HCC70): 158 nM
GI50 (HCC1187, cell line HCC1187): 33100 nM
GI50 (HCC1428, HCC1428 cell line, censored GI50 values): 17000 nM
GI50 (HCC1428, cell line HCC1428): 17000 nM
GI50 (HCC1954, HCC1954 cell line, censored GI50 values): 52.5 nM
GI50 (HCC1954, cell line HCC1954): 52.5 nM
GI50 (HCC2185 cell line, censored GI50 values): 263 nM
GI50 (HCC3153 cell line, censored GI50 values): 646 nM
GI50 (MCF7, MCF7 cell line, censored GI50 values): 589 nM
GI50 (MCF7, cell line MCF7): 589 nM
GI50 (MDA-MB-134-VI, MDAMB134VI cell line, censored GI50 values): 1000 nM
GI50 (MDA-MB-175-VII, MDAMB175VII cell line, censored GI50 values): 1150 nM
GI50 (MDA-MB-361, MDAMB361 cell line, censored GI50 values): 813 nM
GI50 (MDA-MB-361, cell line MDAMB361): 813 nM
GI50 (MDA-MB-415, MDAMB415 cell line, censored GI50 values): 263 nM
GI50 (MDA-MB-415, cell line MDAMB415): 263 nM
GI50 (MDA-MB-453, MDAMB453 cell line, censored GI50 values): 132 nM
GI50 (MDA-MB-453, cell line MDAMB453): 132 nM
GI50 (MDA-MB-468, cell line MDAMB468): 33100 nM
GI50 (SK-BR-3, SKBR3 cell line, censored GI50 values): 589 nM
GI50 (SK-BR-3, cell line SKBR3): 589 nM
GI50 (SUM52PE, SUM52PE cell line, censored GI50 values): 17000 nM
GI50 (SUM52PE, cell line SUM52PE): 17000 nM
GI50 (SUM149PT, SUM149PT cell line, censored GI50 values): 269 nM
GI50 (SUM149PT, cell line SUM149PT): 269 nM
GI50 (SUM185PE, SUM185PE cell line, censored GI50 values): 15100 nM
GI50 (SUM185PE, cell line SUM185PE): 15100 nM
GI50 (SUM1315MO2, SUM1315MO2 cell line, censored GI50 values): 224 nM
GI50 (SUM-159-PT, SUM159PT cell line, censored GI50 values): 36.3 nM
GI50 (SUM-159-PT, cell line SUM159PT): 36.3 nM
GI50 (T47D, T47D cell line, censored GI50 values): 282 nM
GI50 (T47D, cell line T47D): 282 nM
GI50 (UACC-812, UACC812 cell line, censored GI50 values): 16600 nM
GI50 (UACC-812, cell line UACC812): 16600 nM
GI50 (ZR-75-1, ZR751 cell line, censored GI50 values): 16600 nM
GI50 (ZR-75-1, cell line ZR751): 16600 nM
GI50 (ZR-75B, ZR75B cell line, censored GI50 values): 141 nM
GI50 (ZR-75B, cell line ZR75B): 141 nM
GI50 (cell line HCC2185): 263 nM
GI50 (cell line HCC3153): 646 nM
GI50 (cell line MDAMB134V): 1000 nM
GI50 (cell line MDAMB175V): 1150 nM
GI50 (cell line SUM1315MO): 224 nM
